Active and inactive are the calls of the source.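 The calls were made as follows: active = fitted curve rises past 40% activation at or below the highest valid tested dose; inconclusive = flat fit between 30% and 70%, or poor curve fit; inactive = the rest, including signal falling instead of rising.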
Biological target: Luciferin 4-monooxygenase (Photinus pyralis) (UniProt P08659)
Assay: firefly luciferase activators or modifiers, dose response, counter-screen for NLG project, biochemical, CellTiter-Glo luminescence, dry powder samples (AID 720562)
Conditions: purified luciferase, 1 h

Luciferin 4-monooxygenase (Photinus pyralis), sequence (P08659 whole entry, looked up): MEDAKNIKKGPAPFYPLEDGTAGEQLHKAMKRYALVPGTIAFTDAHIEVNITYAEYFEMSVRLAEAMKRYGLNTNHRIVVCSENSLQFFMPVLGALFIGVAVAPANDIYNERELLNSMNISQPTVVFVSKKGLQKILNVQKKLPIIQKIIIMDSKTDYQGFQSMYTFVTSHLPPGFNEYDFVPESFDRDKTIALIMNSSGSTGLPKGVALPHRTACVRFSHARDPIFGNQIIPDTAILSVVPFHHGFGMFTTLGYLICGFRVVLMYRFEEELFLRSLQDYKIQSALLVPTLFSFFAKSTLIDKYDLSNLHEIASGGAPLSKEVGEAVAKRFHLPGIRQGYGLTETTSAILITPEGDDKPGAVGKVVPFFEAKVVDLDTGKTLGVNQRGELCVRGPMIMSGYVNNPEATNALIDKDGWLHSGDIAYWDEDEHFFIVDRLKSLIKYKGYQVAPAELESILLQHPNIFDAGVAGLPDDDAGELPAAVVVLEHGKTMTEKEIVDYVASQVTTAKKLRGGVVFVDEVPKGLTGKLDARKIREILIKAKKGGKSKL

SMILES	luminescence change, positive = activation (at 30 µM (top of the series))	AC40	also measured
C/C(=N\NC(=O)c1c([N+](=O)[O-])c(C)nn1C)c1ccc(NC(=O)C2CCCC2)cc1	-2.7% (inactive)		
O=C1CCN(Cc2ccccc2)c2cc3ccccc3cc21			luminescence change, positive = activation (at 7.5 µM (top of the series)): 10.8% (inactive)
COc1cccc(N2CCN(C(=O)c3ccc(CS(=O)c4ccc(C)cc4)o3)CC2)c1 (configuration not stated)	8.11% (inactive)		
Cc1cnc(NC(=O)c2cc(S(=O)(=O)N(C)C)ccc2N2CCCC2)s1	8.11% (inactive)		
Cc1cc(C)nc(/N=C(\N)Nc2ccc(OCc3ccccc3)cc2)n1	36.9% (inactive)		
COc1ccccc1CSc1nnc(-c2ccccc2)o1	19.8% (inactive)		
CCCNS(=O)(=O)c1cccc(C(=O)OCc2cc(=O)oc3cc(OC)ccc23)c1		6.81 µM	
O=C(Cc1ccccc1)c1nnc(-c2ccccc2)o1		> 30 µM (inactive)	
Cc1cc(NC(=O)CSc2nc(-c3ccco3)cc(C(F)(F)F)n2)no1	-25.7% (inactive)		
CCCCOc1ccccc1C1CC(=O)NC2=C1C(=O)CCC2 (configuration not stated)	-27% (inactive)		
CC(=O)c1ccc(Oc2cc(C)nc(-n3nc(C)cc3C)n2)cc1	-10.8% (inactive)		
Nc1nc(=S)c2ncn([C@@H]3O[C@H](CO)[C@@H](O)[C@H]3O)c2[nH]1	97.3% (inactive)		
CCOc1ccc(NC(=O)c2cc(OC)nc3ccccc23)cc1	-0.676% (inactive)		
CCOC(=O)COc1cccc2c(=O)n(CC(=O)NCc3ccccc3)ccc12	-4.73% (inactive)		
COC(=O)c1cn(C(=O)c2ccc(OC)cc2)c2ccccc12		12.5 µM	
Cc1cc(=O)[nH]c(N/N=C/c2cc(C)n(CC(F)(F)F)c2C)n1	36% (inactive)		
Cc1cccc(C)c1OCCNC(=O)C(=O)NCc1ccco1	-39.9% (inactive)		
Brc1ccc(CSc2nnc(-c3ccccc3)o2)cc1	21.6% (inactive)		
CCN(CC)CCCNc1nc2cc(OC)c(OC)cc2c2nc(-c3ccccc3)nn12	-10.1% (inactive)		
COc1ccc2c(COC(=O)c3cccc(S(=O)(=O)NCC(C)C)c3)cc(=O)oc2c1		1.49 µM	
CCN(CC)CCOc1ccc2c(c1)C(=NNC(=O)c1ccccn1)c1cc(OCCN(CC)CC)ccc1-2		> 30 µM (inactive)	
COc1ccccc1OCC(=O)NNC(=O)c1ccoc1C	-17.6% (inactive)		
O=C(N/N=C/c1ccc(Cl)cc1)c1sccc1OCc1ccc(F)cc1		> 30 µM (inactive)	
Cc1cc(C)cc(C(=O)N2CC(=O)Nc3ccccc32)c1	-9.46% (inactive)		

SMILES	luminescence change, positive = activation (at 30 µM (top of the series))	AC40	also measured
COc1ccccc1-c1nnc(SCc2ccccc2)o1	-10.8% (inactive)		
CCn1c2ccccc2c2cc(NC(=O)c3cc(OC)c(OC)c(OC)c3)ccc21			luminescence change, positive = activation (at 7.5 µM (top of the series)): -35.8% (inactive)
COc1ccc(-c2nnc(SCc3ccccc3)o2)cc1		> 30 µM (inactive)	
c1ccc(CSc2nnc(-c3ccccc3)o2)cc1		20.9 µM	
COc1cc(Nc2c3c(nc4ccccc24)CCCC3)cc(OC)c1OC	-14.9% (inactive)		
COc1cc(C(=O)NCCOc2cc(C)cc(C)c2)cc(OC)c1OC		24.5 µM	
Cc1[nH][nH]c(=O)c1C(c1ccc(-c2ccc(Cl)c(Cl)c2)o1)c1c(C)[nH][nH]c1=O	7.43% (inactive)		
CCOC(=O)c1ccc(Oc2cc(C)nc(SC)n2)cc1	16.2% (inactive)		
CCOc1ccc(S(=O)(=O)NCc2ccccn2)cc1NC(=O)c1ccccc1F			luminescence change, positive = activation (at 7.5 µM (top of the series)): -35.8% (inactive)
COc1ccc(CSc2nnc(-c3ccccc3)o2)cc1		> 30 µM (inactive)	
O=C1CCNc2cc3ccccc3cc21		28.2 µM	
Cc1ccc(CCC(=O)Nc2ncc(Cc3cc(Cl)ccc3Cl)s2)o1	-24.3% (inactive)		
Cc1ccc(C(=O)c2cc([N+](=O)[O-])ccc2N2CCOCC2)cc1C	19.8% (inactive)		
Cc1ccc(/C=N/NC(=O)C2COc3ccccc3O2)s1 (configuration not stated)		> 30 µM (inactive)	
CCN(CC)CCC(=O)Nc1cccc2c1C(=O)c1ccccc1C2=O		14.7 µM	
COc1ccc(NC(=O)C(=O)c2cn(CC(=O)N3CCCC3)c3ccccc23)cc1	-20.3% (inactive)		
CC(=O)N1CCC(=O)c2cc3ccccc3cc21		4.65 µM	
CCCOC(=O)c1[nH]c2c(c1C)C(=O)CC(c1cccs1)C2 (configuration not stated)		10 µM	
CCC1=Nc2cc(C(=O)NCCCOC)ccc2Sc2ccccc21	-11.5% (inactive)		
CC(=O)N[C@H]1[C@@H](O[C@@H]2OC(C[C@@H](O)C3O[C@@H](n4ccc(=O)[nH]c4=O)[C@H](O)[C@@H]3O)[C@H](O)[C@H](O)[C@H]2NC(=O)/C=C/CCCCCCCCCCC(C)C)O[C@H](CO)[C@@H](O)[C@@H]1O (some centres not stated)		13.1 µM	
Cc1ccc(Oc2ccc(S(=O)(=O)N3CCOCC3)cc2C(N)=O)c(-n2nc3ccccc3n2)c1	-22.3% (inactive)		
CC(=O)c1cccc(NC(=O)CSc2ncc(C(=O)Nc3ccccc3)c(=O)n2C)c1	-7.43% (inactive)		
COc1cc(-c2nnc(SCC3(c4ccc(Br)cc4)OCCO3)o2)cc(OC)c1OC		> 30 µM (inactive)	

Reference: PubChem BioAssay AID720562 (Broad Institute, 2013)
